Values of other authors as cited in US20050287177A1, “Pharmaceutical compositions” (Glaxo Group Unlimited and Smithkline Beecham Corp., priority 2002, published 2005).

Columns and labels:
[1] = elimination
[2] = colon versus small intestine

SMILES: Cc1cn([C@H]2C[C@H](N=[N+]=[N-])[C@@H](CO)O2)c(=O)[nH]c1=O [Zidovudine, 3′-azido-3′-deoxythymidine]
- terminal half-life [1]: 1.5 to 2 h
- colonic absorption [2]: very low
